The nature of data set [1]: Stability in ARDS bronchoalveolar lavage fluid (MALDI-TOF MS). The class given is in vitro ADME, human. As to conditions: for stability in ARDS BALF: human ARDS BALF pooled from three patients vs PBS, 5 and 30 min. The source says: To determine the ability of UBI-3 to image bacteria in the continued presence of a complex inflammatory environment, bacteria were labelled with UBI-3 in the presence of broncho-alveolar lavage fluid (BALF) retrieved from ventilated ICU patients with Acute Respiratory Distress Syndrome (ARDS). ARDS BALF was utilised as ARDS is a severe life threatening pulmonary syndrome, characterized by a massive proteolytic and oxidative inflammatory environment within the distal alveolar region.[14] […] To design out susceptible amino acid cleavage points, a number of modifications were made (Table 1) and the functional consequences assessed. The chemical approaches pursued to improve resistance to degradation included replacing amino acids at the cleavage positions with non-natural amino acids such as N-methyl or D-amino acids,[15] and cyclisation of the peptide,[16] which could have the added benefit of enhancing affinity towards bacterial membrane.[17]
The Arg–Arg bonds were identified as the prominent position of degradation (Fig. 5) and Compounds UBI-4–9 (Table 1) were synthesised with a variety of substitutions around the degradation sites. The susceptible peptide bonds at P1–P2 and P7–P8 were blocked using N-MeArg (UBI-4), and to further mask these positions, a long polyethylene glycol (PEG) chain and/or a D-amino acid were positioned at the carboxylic and/or amino termini (UBI-5–7).
We hypothesized that cyclisation of the sequence would allow for greater stability and also improve bacterial affinity and therefore cyclic variants of UBI-3 were synthesized (UBI-10 and UBI-11), which were both found to be stable in BALF for 5 minutes (Fig. 7 and S3 ESI ^†). […] However, these studies also highlighted the degradation of UBI-10 at 10 minutes, guiding the temporal constraints of Smartprobe delivery and optical imaging.
Fig. 7 UBI-10 remains stable in ARDS BALF at 5 minutes. (A) Structure of UBI-10 with breakdown products in ARDS BALF. […] TEXT PRINTED IN THE PICTURE: UBI-10: Molecular Weight: 2118.41 | Fragment A: Molecular Weight: 1923.18 | Fragment B: Molecular Weight: 1980.23 DOUBTS OF THE COPYIST ABOUT THIS PICTURE: UBI-10, Molecular Weight: very small print, 2118.41 is the best reading; the digits 8 and 4 are uncertain / Fragment A, Molecular Weight: very small print, 1923.18 is the best reading; the digits 9, 3 and 8 are uncertain / Fragment B, Molecular Weight: very small print, 1980.23 is the best reading; the digits 9, 8 and 3 are uncertain […]
Supplementary Information
A Labelled-Ubiquicidin Antimicrobial Peptide for Immediate In Situ Optical Detection of Live Bacteria in Human Alveolar Lung Tissue
Ahsan R Akram, Nicolaos Avlonitis, Annamaria Lilienkampf, Ana M Perez-Lopez, Neil McDonald, Sunay V Chankeshwara, Emma Scholefield, Christopher Haslett, Mark Bradley & Kevin Dhaliwal.
Figure S1: MALDI-TOF MS spectra for a stability study of UBI-3 in PBS and in ARDS BALF […]
Figure S2. MALDI-TOF MS spectra of modified analogues UBI-4 to UBI-9 in Phosphate Buffered Saline and ARDS BALF over a period of 5 and 30min.
Figure S3: MALDI-TOF MS spectra of UBI-11 in Phosphate Buffered Saline vs ARDS BALF […]
Figure S4. Quantified fluorescence of confocal microscopy images of the compounds UBI-3, UBI-5 and UBI-10 on three bacteria and fluorescence retention following a PBS wash.
Figure S5: Fibered confocal fluorescence microscopy imaging of human lung and Calcein AM stained Methicillin sensitive S. aureus.
Experimental Details including Tables M1-4, Figure M1 and HPLC Chromatograms.
(also on this page, place not known: Electronic Supplementary Material (ESI) for Chemical Science. This journal is © The Royal Society of Chemistry 2015)
(1 picture or pasted object on this page, not shown here) […]
BALF Retrieval: Bronchoalveolar lavage was performed in the Intensive Care Unit (ICU), as previously described. S5 Pooled samples from three patients were used for stability assays. […]
Exposure to 488 nm light was limited to 5% […]

Data set [2] is described as follows: Chemical stability on storage in phosphate buffered saline at 37 °C (HPLC). The format is physicochemical. Particulars: 1 mg mL–1 in PBS, day 0 vs day 3, HPLC, detection at 380 nm. As for the experimental part: This modification is particularly of relevance due to the expected in vivo inflammatory oxidative environment within an infected pneumonic lung due to infiltrating host inflammatory cells such as neutrophils,[13] and therefore all subsequent modifications incorporated Nle in place of Met.
HPLC chromatograms (gradient acetonitrile + 0.1% formic acid/water + 0.1% formic acid from 5/95 to 95/5 over 10 min, then isocratic for 4 min; detection at 380 nm). UBI-2 (1 mg mL^–1 in PBS, upper panels) and UBI-3 (1 mg mL^–1 in PBS, lower panels) at (A) day 0 and (B) day 3 after incubation at 37 °C.

Non-standard residues stand in square brackets, D forms with d. Residues, ends and D or L forms follow the SMILES beside them. *: point of attachment. NBD = O=[N+]([O-])c1ccc(*)c2nonc12; Nle = CCCC[C@H](N)C(=O)O; Ahx = NCCCCCC(=O)O Where only a bound is given, the exact number is not on record here.

Regarding `CCCC[C@H](NC(=O)[C@H](CCCNC(=N)N)NC(=O)[C@H](CCCNC(=N)N)NC(=O)[C@H](CCCCN)NC(=O)[C@H](C)NC(=O)[C@H](CCCNC(=N)N)NC(=O)CNC(=O)[C@@H](NC(=O)CCCCCNc1ccc([N+](=O)[O-])c2nonc12)[C@@H](C)O)C(=O)N[C@@H](CCC(N)=O)C(=O)N[C@@H](Cc1ccc(O)cc1)C(=O)N[C@@H](CC(N)=O)C(=O)N[C@@H](CCCNC(=N)N)C(=O)N[C@@H](CCCNC(=N)N)C(N)=O` [UBI-3] ({NBD-Ahx}-TGRAKRR[Nle]QYNRR-NH2), the “stability in ARDS BALF” value in data set [1] (MALDI-TOF MS) is “Unstable in ARDS BALF”. Moreover, in data set [1] (human ARDS BALF, MALDI-TOF MS), the “time of degradation of the peptide in ARDS BALF” value is less than 5 min. The “chemical stability in PBS at 37 °C” value in data set [2] is “prevented by substitution of the Met to Nle”.

Turning to `CCCC[C@@H]1NC(=O)[C@H](CCCNC(=N)N)NC(=O)[C@H](CCCNC(=N)N)NC(=O)[C@H](CCCCN)NC(=O)[C@H](C)NC(=O)[C@H](CCCNC(=N)N)NC(=O)CNC(=O)[C@H]([C@@H](C)O)NC(=O)[C@@H](NC(=O)CCCCCNc2ccc([N+](=O)[O-])c3nonc23)CCCCNC(=O)CNC(=O)[C@H](CCCNC(=N)N)NC(=O)[C@H](CCCNC(=N)N)NC(=O)[C@H](CC(N)=O)NC(=O)[C@H](Cc2ccc(O)cc2)NC(=O)[C@H](CCC(N)=O)NC1=O` [UBI-10], the “stability in ARDS BALF” value in data set [1] (MALDI-TOF MS) was “Improved stability in ARDS BALF”. Besides, the “time stable in ARDS BALF” value in data set [1] (human ARDS BALF, MALDI-TOF MS) worked out at 5 min. Besides, in data set [1] (human ARDS BALF, MALDI-TOF time course), the “time at which degradation products form in ARDS BALF” value was 10 min.

The record behind these values is publication PMC5947527 (Chemical Science, 2015).
